Here are results for 12 molecules from paper PMC7230911, “Meroterpenoids from the Brown Alga Cystoseira usneoides as Potential Anti-Inflammatory and Lung Anticancer Agents” (Marine Drugs, 2020).

Read-outs that look alike come from different tables or passages of the source.

The subject of assay [1] is A549 human cancer cell line. The following applies: cited from earlier work.
Assay [2] concerns LPS-stimulated RAW264.7 macrophages. The following applies: cited from earlier work.
Assay [3] concerns several human cancer cell lines, including A549 cells. Set-up: method as in PMID 19271727, PMID 22920243. The following applies: mean over several human cancer cell lines; cited from earlier work.
In another assay the test system is A549 cells. The assay can be described thus: Cell cycle analysis of A549 cells by flow cytometry. Format: cell-based, human. The following applies: 0.2 μg/mL, 24 h, positive control. The procedure:
We next investigated whether the treatment with AMTs 1–8 caused any cell cycle-related event, which inhibit the viability of A549 cell line. Thus, the cells were treated for 24 h with the AMTs at concentrations of IC50 (Table 1), or with colchicine (at 0.2 μg/mL) as the positive control, and then subjected to flow cytometry analysis to evaluate the distribution of cells in the different phases of the cell cycle (Figure 5A).
Figure 5 Effects of meroterpenoids 1–8 on cell cycle distribution of A549 cells. Cells were incubated with IC50 doses of the compounds for 24 h. (A) Cells were harvested to measure the cell cycle distribution by flow cytometry. (B) Quantitative analysis of cell cycle distribution after treatment. Data represent mean ±SE from three independent experiments. * p < 0.05, ** p < 0.01, and *** p < 0.001 compared with the untreated group (control).
For cell cycle analysis by flow cytometry, A549 cells were seeded at 1 × 10^6 cells/well in 6-well plates and incubated for 24 h followed by treatment with the AMTs, at concentration of IC50, and further incubation for 24 h. Colchicine (final concentration of 0.2 μg/mL) was used as positive control. Cells were harvested after trypsinization and washed once with PBS. Then, the cells were centrifuged at 1500 rpm for 5 min (25 °C), the pellet was fixed with 1 mL of ice-cold 70% ethanol, and the samples were stored at −4 °C overnight. Then the cells were washed with PBS and incubated in the darkness with PBS containing 5 mg/mL of RNase A for 48 h at 4 °C. Subsequently, 50 µL of propidium iodide (0.1 mg/mL) was added and the cells were incubated for 1 h at 4 °C. The relative DNA content per cell was analyzed using a Beckman Coulter Cytomics FC 500 MPL (Beckman Coulter Inc, San Diego, CA, USA). The data acquisition was performed with the DML program. The analysis of the acquired data was performed with the CXP cytometer.

Assay [4] concerns several human cancer cell lines, including A549 cell line. Also on record: method as in PMID 22775218. The settings on record: cited from earlier work.

For the molecule 5β-hydroxyaplysin, in assay [1] (read-out: IC50 towards A549), the IC50 was 35.3 µM. On to 5β-hydroxypalisadin B, for which, in assay [2], the “production of NO, TNF-α, IL-6, IL-1β and COX-2, iNOS expression (in words)” value is “inhibit”. For `C=C(C)[C@@H]1CCC(C)(O)[C@H](Br)CC[C@@]2(C)C(=C(C)CC[C@@H]2Br)Cc2cc(ccc2O)C(=O)O1` (stereo partly shown) [bromophycolide M], in assay [3], the IC50 was 3.1 µM.

`C=C(C)[C@@H]1CCC(C)(O)[C@H](Br)CC[C@@]2(C)[C@H](Cc3cc(ccc3O)C(=O)O1)C(C)=CC[C@@H]2Br` (stereo partly shown) [bromophycolide N]: in assay [3], the IC50 was 8.6 µM. `CC1=CC[C@H](Br)[C@@]2(C)CC[C@@H](Br)C(C)(O)CC[C@@H](C(C)(C)Br)OC(=O)c3ccc(O)c(c3)C[C@H]12` (stereo partly shown) [bromophycolide O]: in assay [3], the IC50 is 9.7 µM. For the molecule `C=C1CC[C@H](Br)[C@@]2(C)CC[C@@H](Br)[C@@]3(C)CC[C@H](OC(=O)c4ccc(O)c(c4)C[C@H]12)C(C)(C)O3` [bromophycolide P], the IC50 in assay [3] is 7.9 µM. Take `CC1=C2Cc3cc(ccc3O)C(=O)O[C@H]3CC[C@@](C)(OC3(C)C)[C@H](Br)CC[C@]2(C)[C@@H](Br)CC1` [bromophycolide Q]: in assay [3], the IC50 is 2 µM. Consider `COc1cc2c(c(OC)c1OC)-c1ccc(OC)c(=O)cc1[C@@H](NC(C)=O)CC2` [colchicine, reference compound], for which the “cells arrested in G2/M phase” value in the assay with A549 cells worked out at 89.88%. As for `C=C1C[C@H](O)[C@H](Br)C(C)(C)[C@@]12CCC(C)=C(Cl)C2` [elatol], the IC50 in assay [1] (read-out: IC50 towards A549) was 4.8 µM. Moreover, in assay [4], the “cell cycle effect (in words)” value was “cell cycle arrest in the G1 and the sub-G1 phases”.

With `CC(C)[C@@H]1CC=C[C@H]2[C@H]3[C@@](C)(C=CC(=O)[C@@]3(C)O)CC[C@]12CBr` [sphaerococcenol A], the IC50 in assay [1] (read-out: IC50 growth of A549 cells) was 3.7 µM. Regarding bromophycoic acid D, the IC50 in assay [3] is 6.8 µM. Turning to nerogioltriol, the “activation of NFκB and production of NO, TNF-α and COX-2 (in words)” value in assay [2] was “inhibit”.
